According to US10266544B2, “Aryl substituted aminomethyl spectinomycin analogs as antibacterial agents” (ST. JUDE CHILDREN'S RESEARCH HOSPITAL, INC., priority 2013, dated 2019):
Counter-ions that a name gives are not always drawn. Like-named read-outs stand apart in the source and are kept apart here.

Experiments:
Type in all cases: cell-based
[1] = system: Burkholderia cepacia (ATCC 25416); experiment: MIC determination, microbroth dilution; conditions: Burkholderia cepacia
[2] = system: Bacillus anthracis, Sterne 34F2; experiment: microbe, parasite or virus in culture; conditions: STERNE34F2, read-out: MIC B.a.
[3] = system: Streptococcus pneumoniae (R6); experiment: MIC determination, microbroth dilution; conditions: read-out: MIC S. pn.
[4] = system: Haemophilus influenza (ATCC 49247); experiment: microbe, parasite or virus in culture; conditions: ATCC49247; Haemophilus influenza; 4 μg per disc; range of at least two experiments; read-out: Zone of inhibition H.i.
[5] = system: Legionella pneumophila (ATCC 33153); experiment: microbe, parasite or virus in culture; conditions: ATCC33153, 72 h, read-out: Zone of inhibition L.p.
[6] = system: Staphylococcus aureus (ATCC 29213); experiment: MIC determination, microbroth dilution; conditions: ATCC29213; Staphylococcus aureus (ATCC 29213); read-out: MIC S.a.
[7] = system: acinetobacter baumannii (ATCC 19606); experiment: MIC determination, microbroth dilution; conditions: ATCC19606
[8] = system: Escherichia coli (ATCC 700926); experiment: MIC determination, microbroth dilution; conditions: ATCC700926; Escherichia coli (ATCC 700926); read-out: MIC E.c.
[9] = system: Proteus mirabilis (ATCC 25933); experiment: MIC determination, microbroth dilution; conditions: ATCC25933
Moraxella catarrhalis = experiment: MIC determination (Table 6)
[10] = system: Neisseria meningitides (ATCC 13077); experiment: Disc diffusion assay; conditions: ATCC13077, 4 μg per disc, read-out: Zone of inhibition N.m.
[11] = system: Proteus vulgaris (ATCC 33420); experiment: MIC determination, microbroth dilution; conditions: ATCC33420
[12] = system: M. tuberculosis clinical isolates; experiment: microbe, parasite or virus in culture; conditions: Mycobacterium tuberculosis, H37RV, read-out: MIC H37Rv
[13] = system: Klebsiella pneumoniae (ATCC 33495); experiment: MIC determination, microbroth dilution; conditions: ATCC33495
Bacillus anthracis = experiment: microbe, parasite or virus in culture; conditions: read-out: MIC B.a.
Yersinia pestis = experiment: microbe, parasite or virus in culture; conditions: read-out: MIC Y.p.
[14] = system: Streptococcus pyogenes (ATCC 700294); experiment: MIC determination, microbroth dilution
[15] = system: MRSA, Staphylococcus aureus (NRS70); experiment: MIC determination, microbroth dilution; conditions: Staphylococcus aureus (NRS70); read-out: MIC MRSA
[16] = system: Stenotrophomonas maltophilia (ATCC 13637); experiment: MIC determination, microbroth dilution
[17] = system: Neisseria gonorrhoeae (ATCC 49226); experiment: Agar MIC determination (Alamar Blue); conditions: ATCC49226, agar MIC, read-out: MIC N.g.
[18] = system: Pseudomonas aeruginosa (PA01); experiment: MIC determination, microbroth dilution
[19] = system: Bacillus subtilis (ATCC 23857); experiment: MIC determination, microbroth dilution; conditions: ATCC23857; Bacillus subtilis (ATCC 23857); read-out: MIC B.s.
[20] = system: Enterococcus faecalis (ATCC 33186); experiment: MIC determination, microbroth dilution; conditions: ATCC33186; Enterococcus faecalis (ATCC 33186); read-out: MIC E.f.
E. coli K12 ΔtolC = experiment: microbe, parasite or virus in culture; conditions: Escherichia coli, read-out: MIC E.c. Δtolc
[21] = system: Neisseria gonorrhoeae (ATCC 49226); experiment: Disc diffusion assay; conditions: ATCC49226, 4 μg per disc, read-out: Zone of inhibition N.g.
Listeria monocytogenes = experiment: MIC determination (Table 6)
[22] = ATCC25416, read-out: MIC B.c., Burkholderia cepacia (ATCC 25416)
[23] = ATCC25416, read-out: MIC B.c., Burkholderia cepacia, Table 6

Compound	MIC [1, 22]	MIC [1, 23]	MIC [2]	zone of inhibition at 4 µg/disc [4]	zone of inhibition at 4 µg/disc [5]	MIC [6]	MIC [7]	MIC [8]	MIC [9]	MIC (Moraxella catarrhalis)	zone of inhibition at 4 µg/disc [10]	MIC [11]	MIC [12]	MIC [13]	MIC (Bacillus anthracis)	MIC (Yersinia pestis)	MIC [15]	MIC [17]	MIC [18]	MIC [19]	further results
CN[C@@H]1[C@H](O)[C@H](NC)[C@H]2O[C@]3(O)[C@H](O[C@@H]2[C@H]1O)O[C@H](C)C[C@@]3(O)CNCc1ccccn1 [compound 16, 3′-(R)-3′-(2-pyridinylmethylaminomethyl)dihydrospectinomycin Tetrahydrobromide]	> 200 µg/mL	> 200 µg/mL	50 µg/mL	7 mm	34 mm	100 to 200 µg/mL	> 200 µg/mL	100 to 200 µg/mL	> 200 µg/mL	12.5 µg/mL	13 mm	> 200 µg/mL	12.5 µg/mL	200 µg/mL	50 µg/mL	100 µg/mL	> 200 µg/mL	≥ 200 µg/mL	> 200 µg/mL	50 µg/mL	MIC ([3]; Streptococcus pneumoniae): 12.5 µg/mL; MIC ([14]; Streptococcus pyogenes, ATCC700294, read-out: MIC S. py.): 12.5 to 25 µg/mL; MIC ([16]; Stenotrophomonas maltophilia, ATCC13637, read-out: MIC S.m.): 12.5 to 25 µg/mL; MIC [20]: 100 µg/mL; MIC (E. coli K12 ΔtolC): 50 µg/mL; zone of inhibition at 4 µg/disc [21]: 6 mm; MIC (Listeria monocytogenes): 25 µg/mL
CN[C@@H]1[C@H](O)[C@H](NC)[C@H]2O[C@]3(O)[C@H](O[C@@H]2[C@H]1O)O[C@H](C)C[C@@]3(O)CNCc1ccccc1F [compound 14, 3′-(R)-3′-[(2-fluoro)benzylaminomethyl)]dihydrospectinomycin Trihydrochloride]	100 to 200 µg/mL	100 to 200 µg/mL	50 to 100 µg/mL	11 to 12 mm	36 mm	200 µg/mL	> 200 µg/mL	50 µg/mL	> 200 µg/mL	1.6 µg/mL	19 mm	100 µg/mL	50 µg/mL	≥ 200 µg/mL	50 to 100 µg/mL	> 200 µg/mL	≥ 200 µg/mL	12.5 to 25 µg/mL	≥ 200 µg/mL	6.3 µg/mL	MIC ([3]; Streptococcus pneumoniae (R6)): 3.1 to 6.3 µg/mL; MIC ([14]; ATCC700294, Streptococcus pyogenes (ATCC 700294), read-out: MIC S. py.): 3.1 µg/mL; MIC ([16]; ATCC13637, Stenotrophomonas maltophilia (ATCC 13637), read-out: MIC S.m.): 12.5 to 25 µg/mL; MIC [20]: 50 µg/mL; MIC (E. coli K12 ΔtolC): 25 µg/mL; zone of inhibition at 4 µg/disc [21]: 18 mm; MIC (Listeria monocytogenes): 25 µg/mL
